pIC50: −log10 of the molar value.

For orientation: pIC50 means the IC50 on a negative log10 scale, so that one unit is a factor of ten. Read a high pIC50 as a small IC50.

The test deals with Dipeptidyl peptidase 4 (Homo sapiens, UniProt P27487). Briefly: Inhibitory activity against Dipeptidylpeptidase IV mediated cleavage of Ala-Pro-7-amido-4-tri-fluoromethylcoumarin in a fluorogenic assay. The format is functional.
Dipeptidyl peptidase 4, sequence (P27487 whole entry): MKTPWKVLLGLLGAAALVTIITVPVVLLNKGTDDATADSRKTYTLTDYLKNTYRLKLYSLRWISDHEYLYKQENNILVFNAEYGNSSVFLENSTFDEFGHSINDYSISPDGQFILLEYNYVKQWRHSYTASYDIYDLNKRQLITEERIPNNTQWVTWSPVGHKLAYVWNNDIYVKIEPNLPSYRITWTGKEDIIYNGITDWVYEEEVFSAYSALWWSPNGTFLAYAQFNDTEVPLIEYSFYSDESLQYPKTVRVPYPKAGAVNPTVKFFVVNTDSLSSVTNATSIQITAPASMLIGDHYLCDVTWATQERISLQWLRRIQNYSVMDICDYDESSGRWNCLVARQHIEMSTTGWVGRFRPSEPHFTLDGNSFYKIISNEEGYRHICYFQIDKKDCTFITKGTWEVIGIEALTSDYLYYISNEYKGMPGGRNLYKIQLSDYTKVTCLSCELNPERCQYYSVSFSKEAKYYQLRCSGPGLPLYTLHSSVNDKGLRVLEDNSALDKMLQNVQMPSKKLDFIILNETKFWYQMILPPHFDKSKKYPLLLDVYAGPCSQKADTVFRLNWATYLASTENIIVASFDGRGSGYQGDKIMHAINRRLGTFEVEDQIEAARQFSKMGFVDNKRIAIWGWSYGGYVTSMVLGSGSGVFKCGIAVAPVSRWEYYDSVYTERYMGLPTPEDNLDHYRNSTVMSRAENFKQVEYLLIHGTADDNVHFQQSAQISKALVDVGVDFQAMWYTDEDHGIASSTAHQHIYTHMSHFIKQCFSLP
`NCc1c(N)nc(-c2ccccc2)nc1-c1ccc(F)cc1` showed a pIC50 of 4.74. For `Cc1cccc(-c2nc(-c3ccccc3)nc(N)c2CN)c1` the value was 4.70. In the case of `NCc1c(N)nc(-c2ccccc2)nc1-c1ccccc1F`, the pIC50 was 4.85. For `NCc1c(N)nc(-c2ccccc2)nc1-c1ccccc1C(F)(F)F` the value was 4.85; for `NCc1c(N)nc(-c2ccccc2)nc1-c1cccc(C(F)(F)F)c1`, 3.77; for `NCc1c(N)nc(-c2ccccc2)nc1-c1ccccc1`, 4.38.

Regarding `COc1cccc(-c2nc(-c3ccccc3)nc(N)c2CN)c1`, the pIC50 is 4.10. This pIC50 is 0.28 log units lower than that of the compound before.

In turn, `NCc1c(N)nc(-c2ccccc2)nc1-c1ccc(Cl)cc1` showed a negative logarithm of the IC50 (pIC50) of 5.85. This pIC50 is 1.75 log units higher than that of the compound before.

`NCc1c(N)nc(-c2ccc(C(F)(F)F)cc2)nc1-c1ccc(Cl)cc1Cl` had a pIC50 of 6.74. Against the preceding compound, the pIC50 is 0.89 log units higher. With `COc1ccccc1-c1nc(N)c(CN)c(-c2ccc(Cl)cc2Cl)n1` the figure was 6.46. With `NCc1c(N)nc(-c2ccc(F)cc2)nc1-c1ccc(Cl)cc1Cl` the figure was 9.70; with `Cc1ccc(-c2nc(N)c(CN)c(-c3ccc(Cl)cc3Cl)n2)cc1`, 7.05. With `NCc1c(N)nc(-c2ccccc2)nc1-c1ccc(C(F)(F)F)cc1` the figure was 5.96; with `Cc1ccccc1-c1nc(-c2ccccc2)nc(N)c1CN`, 5.82.

`Cc1cccc(-c2nc(N)c(CN)c(-c3ccc(Cl)cc3Cl)n2)c1` gave a pIC50 of 9.05.

In the case of `NCc1c(N)nc(-c2ccccc2)nc1-c1cccc(F)c1`, the negative-log IC50 (pIC50) was 4.40. For `NCc1c(N)nc(-c2ccccc2)nc1-c1ccc(Cl)cc1Cl` the value was 8.00; for `COc1ccc(-c2nc(-c3ccccc3)nc(N)c2CN)cc1`, 4.33; for `NCc1c(N)nc(-c2ccccc2)nc1-c1ccccc1Cl`, 5.60.

`COc1ccccc1-c1nc(-c2ccccc2)nc(N)c1CN` showed a pIC50 of 5.82.

Compound `COc1ccc(-c2nc(N)c(CN)c(-c3ccc(Cl)cc3Cl)n2)cc1` had a pIC50 of 7.00. This pIC50 lies 1.18 log units higher than the previous one. With `NCc1c(N)nc(-c2ccccc2F)nc1-c1ccc(Cl)cc1Cl` the figure was 7.33; with `Cc1ccccc1-c1nc(N)c(CN)c(-c2ccc(Cl)cc2Cl)n1`, 5.76. `NCc1c(N)nc(-c2cccc(C(F)(F)F)c2)nc1-c1ccc(Cl)cc1Cl`: the pIC50 is 6.89. For `NCc1c(N)nc(-c2cccc(Cl)c2)nc1-c1ccc(Cl)cc1Cl` the value was 6.62.

For the compound `NCc1c(N)nc(-c2ccc(Cl)cc2)nc1-c1ccc(Cl)cc1Cl`, the pIC50 is 7.28. With `COc1cccc(-c2nc(N)c(CN)c(-c3ccc(Cl)cc3Cl)n2)c1` the figure was 6.47; with `NCc1c(N)nc(-c2ccc(F)c(F)c2)nc1-c1ccc(Cl)cc1Cl`, 8.52. `Cc1ccc(-c2nc(-c3ccccc3)nc(N)c2CN)cc1` had a pIC50 of 6.00. For `NCc1c(N)nc(-c2ccccc2)nc1-c1cccc(Cl)c1` the value was 4.51.
